“Also recorded” adds a separate entry of the source.
Tests used:
[1] = system: swine with gait asymmetry due to chronic knee pain induced by unilateral ACLT; experiment: Blinded behavioral assessment of the limp in the ACLT knee osteoarthritis model; type: in vivo, Yucatan miniature swine
Method: (§1) The study was approved by the Institutional Animal Care and Use Committee of the Mayo Clinic. Female Yucatan miniature swine (Exemplar Genetics, Sioux Center, Iowa, USA) weighing 25-45 kg at the time of RTX administration were used. For both procedures (i.e., ACLT and PG-ED injection), the pigs were anesthetized by intramuscular injection of Telazol (tiletamine and zolazepam, 5 mg/kg; Fort Dodge Animal Health, Fort Dodge, Iowa, USA), xylazine (2 mg/kg; Akorn, Decatur, Ill., USA), and glycopyrrolate (0.01 mg/kg; Baxter Healthcare, Deerfield, Ill., USA), followed by endotracheal intubation and anesthesia maintenance with 1.5%-2% isoflurane (Piramal Healthcare, Bethlehem, Pa., USA). For antibiotic prophylaxis, the animals were given a single dose of intramuscular ceftiofur (5 mg/kg; Pfizer, New York, N.Y., USA). For postoperative analgesia, the animals received a single dose of slow release buprenorphine (0.18 mg/kg; Wildlife Pharmaceuticals, Windsor, Colo., USA) intramuscularly and then oral carprofen (3 mg/kg; Pfizer Animal Health, New York, N.Y., USA) as needed for the first three postoperative days. For CTF guided PG-ED injection of RTX, a clinical CT scanner (Definition DS, Siemens Healthcare) with interventional CTF hardware and software packages was used. A full CT scan of the lumbosacral 13 spine was first performed to visualize the spinal anatomy and to identify the optimal access routes to the targeted PG-ED segments. The CT scanner acquisition settings were the same as reported previously (J. Pleticha, et al., Pig lumbar spine anatomy and imaging-guided lateral lumbar puncture: A new large animal model for intrathecal drug delivery, J. Neurosci. Methods 216, 10-15 (2013)). Next, a 22 G, 6″ spinal needle with Quincke tip (Kimberly-Clark, Roswell, Ga., USA) was advanced to the PG-ED space following the predetermined trajectory. […]

[2] = system: sP+ axons in the dorsal horn of the spinal cord; experiment: Substance P (sP) immunohistochemistry of the spinal cord after PG-ED injection; type: in vivo, Yucatan miniature swine
Method: as §1

[3] = system: other neuronal populations in the spinal cord (NeuN; primary motor neurons); experiment: Neuronal nuclei (NeuN) staining of the spinal cord after PG-ED injection; type: in vivo, Yucatan miniature swine; conditions: PG-ED injection of RTX; FIGS. 3A-3D
Method: as §1, with “used.” for “used. A full CT scan of the lumbosacral 13 spine was first performed to visualize the spinal anatomy and to identify the optimal access routes to the targeted PG-ED segments. The CT scanner acquisition settings were the same as reported previously (J. Pleticha, et al., Pig lumbar spine anatomy and imaging-guided lateral lumbar puncture: A new large animal model for intrathecal drug delivery, J. Neurosci. Methods 216, 10-15 (2013)). Next, a 22 G, 6″ spinal needle with Quincke tip (Kimberly-Clark, Roswell, Ga., USA) was advanced to the PG-ED space following the predetermined trajectory.”

rats = conditions: subcutaneous and epidural administration; cited from earlier work

Row | Structure (SMILES) | weight-bearing asymmetry ([1]; ACLT pigs, intramuscular, unblinded observations) | sP+ axonal terminals in the dorsal horn at injected spinal levels, ACLT animals ([2]; ACLT pigs, n=3 RTX, PG-ED at ipsilateral L4, L5, 51, and S2, FIGS. 4A-4F) | RTX dosed animals with low/none sP histology (blinded observer) ([2]; Example 7, second group of pigs, PG-ED, doses of 1.5 μg and 5 μg, P=0.002) | sP+ axons/fibers in the dorsal horn of the spinal cord at the injected levels ([2]; PG-ED injection, 5 μg RTX in 500 μl diluent per spinal level, blinded analysis, n=10 animals in study, sign test p<0.001) | NeuN staining (spinal cord neurons, motor neurons of the anterior horn) [3] | limp / gait asymmetry, before vs after injection (blinded observers) ([1]; ACLT pigs, n=3 RTX, PG-ED at ipsilateral L4, L5, 51, and S2, 3-5 weeks after administration, sign test p<0.02) | clinically observed pain-related behavior (blinded observer) ([1]; Example 7, pigs with knee osteoarthritis, n=8, PG-ED, p=0.03) | thermal analgesia, time without restoration of pain sensitivity (rats)
1 | CN1CC[C@]23c4c5ccc(O)c4O[C@H]2[C@@H](O)C=C[C@H]3[C@H]1C5 [morphine] | diminished weight-bearing asymmetry | – | – | – | – | – | – | –
2 | C=C(C)[C@]12C[C@@H](C)[C@@]34OC(Cc5ccccc5)(O[C@@H]1[C@@H]3C=C(COC(=O)Cc1ccc(O)c(OC)c1)C[C@]1(O)C(=O)C(C)=C[C@@H]41)O2 [RTX] | – | complete loss of sP+ fibers; also recorded: complete loss of the sP+ axonal terminals | 6 of 6 | no sP staining; also recorded: complete loss of sP+ axons | unaffected; also recorded: not affected | improvements in symmetric weight bearing; also recorded: improvement of limp in all animals; also recorded: all animals receiving RTX improved; also recorded: significant reversal of gait asymmetry | improved | over 7 days
